#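 Protocol summary: plate cells (96-well), add compound at 5 concentrations, incubate 48 h, interpolate endpoints linearly. TGI denotes the concentration required for complete inhibition of growth.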
# Legend:
# Test in all cases: NCI tumour cell line growth inhibition, 48 h
# [1] = tested on: 786-0 renal
# [2] = tested on: A498 renal
# [3] = tested on: A549 NSCLC
# [4] = tested on: ACHN renal
# [5] = tested on: BT-549 breast
# [6] = tested on: CAKI-1 renal
# [7] = tested on: CCRF-CEM leukemia
# [8] = tested on: COLO 205 colon
# [9] = tested on: DU-145 prostate
# [10] = tested on: HCC-2998 colon
# [11] = tested on: HCT-116 colon
# [12] = tested on: HCT-15 colon
# [13] = tested on: HL-60(TB) leukemia
# [14] = tested on: HOP-92 NSCLC
# [15] = tested on: HS 578T breast
# [16] = tested on: HT29 colon
# [17] = tested on: K-562 leukemia
# [18] = tested on: KM12 colon
# [19] = tested on: LOX IMVI melanoma
# [20] = tested on: M14 melanoma
# [21] = tested on: MCF7 breast
# [22] = tested on: MDA-MB-231 breast
# [23] = tested on: MDA-MB-435
# [24] = tested on: MDA-N
# [25] = tested on: MOLT-4 leukemia
# [26] = tested on: NCI-H226 lung
# [27] = tested on: NCI-H23 lung
# [28] = tested on: NCI-H460 lung
# [29] = tested on: NCI/ADR-RES ovarian
# [30] = tested on: OVCAR-3 ovarian
# [31] = tested on: OVCAR-4 ovarian
# [32] = tested on: OVCAR-5 ovarian
# [33] = tested on: OVCAR-8 ovarian
# [34] = tested on: PC-3 prostate
# [35] = tested on: RPMI-8226 leukemia
# [36] = tested on: RXF 393 renal
# [37] = tested on: SF-268 CNS
# [38] = tested on: SF-295 CNS
# [39] = tested on: SF-539 CNS
# [40] = tested on: SK-MEL-2 melanoma
# [41] = tested on: SK-MEL-28 melanoma
# [42] = tested on: SK-OV-3 ovarian
# [43] = tested on: SN12C renal
# [44] = tested on: SNB-19 CNS
# [45] = tested on: SNB-75 CNS
# [46] = tested on: SR leukemia
# [47] = tested on: SW-620 colon
# [48] = tested on: T-47D breast
# [49] = tested on: U251 CNS
# [50] = tested on: UACC-257 melanoma
# [51] = tested on: UACC-62 melanoma
# [52] = tested on: UO-31 renal
# [53] = tested on: EKVX NSCLC
# [54] = tested on: HOP-62 NSCLC
# [55] = tested on: IGROV1 ovarian
# [56] = tested on: MALME-3M melanoma
# [57] = tested on: NCI-H522 lung
# [58] = tested on: SK-MEL-5 melanoma
# [59] = tested on: TK-10 renal
smiles,measurement,setting,value
Cc1ccc2nc(NC(=O)/C(Cc3nc4ccc(Cl)cc4[nH]c3=O)=N\NC(C)(C)C)sc2c1,TGI,[1],> 100 µM
same,TGI,[2],> 100 µM
same,TGI,[3],> 100 µM
same,TGI,[4],> 100 µM
same,TGI,[5],> 100 µM
same,TGI,[6],89.7 µM
same,TGI,[7],> 100 µM
same,TGI,[8],> 100 µM
same,TGI,[9],> 100 µM
same,TGI,[10],> 100 µM
same,TGI,[11],> 100 µM
same,TGI,[12],> 100 µM
same,TGI,[13],> 100 µM
same,TGI,[14],> 100 µM
same,TGI,[15],73 µM
same,TGI,[16],> 100 µM
same,TGI,[17],> 100 µM
same,TGI,[18],> 100 µM
same,TGI,[19],> 100 µM
same,TGI,[20],> 100 µM
same,TGI,[21],> 100 µM
same,TGI,[22],> 100 µM
same,TGI,[23],> 100 µM
same,TGI,[24],> 100 µM
same,TGI,[25],> 100 µM
same,TGI,[26],91.3 µM
same,TGI,[27],> 100 µM
same,TGI,[28],> 100 µM
same,TGI,[29],> 100 µM
same,TGI,[30],> 100 µM
same,TGI,[31],> 100 µM
same,TGI,[32],> 100 µM
same,TGI,[33],> 100 µM
same,TGI,[34],> 100 µM
same,TGI,[35],> 100 µM
same,TGI,[36],> 100 µM
same,TGI,[37],> 100 µM
same,TGI,[38],> 100 µM
same,TGI,[39],> 100 µM
same,TGI,[40],> 100 µM
same,TGI,[41],> 100 µM
same,TGI,[42],> 100 µM
same,TGI,[43],> 100 µM
same,TGI,[44],> 100 µM
same,TGI,[45],83.1 µM
same,TGI,[46],> 100 µM
same,TGI,[47],> 100 µM
same,TGI,[48],> 100 µM
same,TGI,[49],> 100 µM
same,TGI,[50],> 100 µM
same,TGI,[51],> 100 µM
same,TGI,[52],> 100 µM
C#CCOCC12C=CC(O1)C1C(=O)OCC12 (centres undefined),TGI,[1],> 100 µM
same,TGI,[2],> 100 µM
same,TGI,[3],> 100 µM
same,TGI,[4],> 100 µM
same,TGI,[5],> 100 µM
same,TGI,[6],> 100 µM
same,TGI,[7],> 100 µM
same,TGI,[8],> 100 µM
same,TGI,[9],> 100 µM
same,TGI,[53],> 100 µM
same,TGI,[10],> 100 µM
same,TGI,[11],> 100 µM
same,TGI,[12],> 100 µM
same,TGI,[13],> 100 µM
same,TGI,[54],> 100 µM
same,TGI,[15],> 100 µM
same,TGI,[16],> 100 µM
same,TGI,[55],> 100 µM
same,TGI,[17],> 100 µM
same,TGI,[18],> 100 µM
same,TGI,[19],> 100 µM
same,TGI,[20],> 100 µM
same,TGI,[56],> 100 µM
same,TGI,[21],> 100 µM
same,TGI,[22],> 100 µM
same,TGI,[23],> 100 µM
same,TGI,[24],> 100 µM
same,TGI,[25],> 100 µM
same,TGI,[26],> 100 µM
same,TGI,[27],> 100 µM
same,TGI,[28],> 100 µM
same,TGI,[57],> 100 µM
same,TGI,[29],> 100 µM
same,TGI,[30],> 100 µM
same,TGI,[31],> 100 µM
same,TGI,[32],> 100 µM
same,TGI,[33],> 100 µM
same,TGI,[34],> 100 µM
same,TGI,[35],> 100 µM
same,TGI,[36],> 100 µM
same,TGI,[37],> 100 µM
same,TGI,[38],> 100 µM
same,TGI,[39],> 100 µM
same,TGI,[41],> 100 µM
same,TGI,[58],> 100 µM
same,TGI,[42],> 100 µM
same,TGI,[43],> 100 µM
same,TGI,[44],> 100 µM
same,TGI,[45],> 100 µM
same,TGI,[46],> 100 µM
same,TGI,[47],> 100 µM
same,TGI,[48],> 100 µM
same,TGI,[59],> 100 µM
same,TGI,[49],> 100 µM
same,TGI,[50],> 100 µM
same,TGI,[51],> 100 µM
same,TGI,[52],> 100 µM

# Reference: PubChem BioAssay (NCI)
